Test [1] deals with DNA topoisomerase 2-alpha (Homo sapiens) (UniProt P11388). The test is described as follows: Inhibition of human topoisomerase-2 alpha assessed as inhibition of relaxation of supercoiled pBR322 plasmid DNA at 100 uM measured after 1 hr by ethidium bromide staining based agarose gel electrophoresis relative to control.
Test [2] has as its target T1, DNA topoisomerase 1 (Homo sapiens) (UniProt P11387).
T1 sequence (whole entry): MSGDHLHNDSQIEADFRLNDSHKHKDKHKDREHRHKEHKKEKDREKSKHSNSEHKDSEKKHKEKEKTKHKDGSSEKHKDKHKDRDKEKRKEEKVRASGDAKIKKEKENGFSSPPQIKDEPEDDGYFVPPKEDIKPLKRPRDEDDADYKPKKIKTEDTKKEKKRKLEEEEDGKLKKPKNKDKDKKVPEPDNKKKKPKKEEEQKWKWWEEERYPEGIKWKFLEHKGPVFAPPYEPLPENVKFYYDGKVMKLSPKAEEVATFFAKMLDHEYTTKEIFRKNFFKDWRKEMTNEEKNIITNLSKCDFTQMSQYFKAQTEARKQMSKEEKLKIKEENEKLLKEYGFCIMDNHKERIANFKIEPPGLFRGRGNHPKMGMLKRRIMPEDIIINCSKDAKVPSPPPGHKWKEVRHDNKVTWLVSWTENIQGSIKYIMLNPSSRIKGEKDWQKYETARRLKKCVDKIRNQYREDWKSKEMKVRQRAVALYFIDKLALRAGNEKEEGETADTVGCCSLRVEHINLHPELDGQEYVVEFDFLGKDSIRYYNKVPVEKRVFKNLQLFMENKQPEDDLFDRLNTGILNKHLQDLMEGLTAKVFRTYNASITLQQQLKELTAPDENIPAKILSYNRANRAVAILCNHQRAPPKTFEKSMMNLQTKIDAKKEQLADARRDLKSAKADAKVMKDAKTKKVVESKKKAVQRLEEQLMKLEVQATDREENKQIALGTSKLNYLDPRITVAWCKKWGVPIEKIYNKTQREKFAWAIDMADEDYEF
The test is described as follows: Inhibition of human topoisomerase-1 assessed as inhibition of relaxation of supercoiled pBR322 plasmid DNA at 20 uM measured after 1 hr by ethidium bromide staining based agarose gel electrophoresis relative to control.

Test [3] in a line: Antiproliferative activity against human T47D cells measured after 72 hrs by CCK8 assay. The format is functional, cell-based. A general note: Formazan colour is commonly taken as a measure of viable cells.
Test [4] can be described thus: Antiproliferative activity against human DU145 cells measured after 72 hrs by CCK8 assay. It counts as functional, cell-based. The settings on record: DU-145, 72 h.
Test [5] addresses DNA topoisomerase 2-alpha (Homo sapiens) (UniProt P11388). The test is described as follows: Inhibition of human topoisomerase-2 alpha assessed as inhibition of relaxation of supercoiled pBR322 plasmid DNA at 20 uM measured after 1 hr by ethidium bromide staining based agarose gel electrophoresis relative to control.
In test [6] the target is T1, DNA topoisomerase 1 (Homo sapiens). The test is described as follows: Inhibition of human topoisomerase-1 assessed as inhibition of relaxation of supercoiled pBR322 plasmid DNA at 100 uM measured after 1 hr by ethidium bromide staining based agarose gel electrophoresis relative to control.
The nature of test [7]: Antiproliferative activity against human MCF7 cells measured after 72 hrs by CCK8 assay. The settings on record: MCF7, 72 h. The format is functional, cell-based.
A short description of test [8]: Antiproliferative activity against human HCT15 cells measured after 72 hrs by CCK8 assay. The settings on record: HCT-15, 72 h. It counts as functional, cell-based.

Inhibition and IC50 data for twelve compounds are collected here from ChEMBL document CHEMBL3877252, “Fluorescein hydrazones: A series of novel non-intercalative topoisomerase IIα catalytic inhibitors induce G1 arrest and apoptosis in breast and colon cancer cells” (Eur J Med Chem, 2017).

As usually defined, the inhibition is the share of the control response that was lost under treatment. A word on the IC50: it is the concentration that gives 50% inhibition. A higher IC50 goes with weaker potency in that assay.

Sequence of DNA topoisomerase 2-alpha (Homo sapiens) (P11388 whole entry): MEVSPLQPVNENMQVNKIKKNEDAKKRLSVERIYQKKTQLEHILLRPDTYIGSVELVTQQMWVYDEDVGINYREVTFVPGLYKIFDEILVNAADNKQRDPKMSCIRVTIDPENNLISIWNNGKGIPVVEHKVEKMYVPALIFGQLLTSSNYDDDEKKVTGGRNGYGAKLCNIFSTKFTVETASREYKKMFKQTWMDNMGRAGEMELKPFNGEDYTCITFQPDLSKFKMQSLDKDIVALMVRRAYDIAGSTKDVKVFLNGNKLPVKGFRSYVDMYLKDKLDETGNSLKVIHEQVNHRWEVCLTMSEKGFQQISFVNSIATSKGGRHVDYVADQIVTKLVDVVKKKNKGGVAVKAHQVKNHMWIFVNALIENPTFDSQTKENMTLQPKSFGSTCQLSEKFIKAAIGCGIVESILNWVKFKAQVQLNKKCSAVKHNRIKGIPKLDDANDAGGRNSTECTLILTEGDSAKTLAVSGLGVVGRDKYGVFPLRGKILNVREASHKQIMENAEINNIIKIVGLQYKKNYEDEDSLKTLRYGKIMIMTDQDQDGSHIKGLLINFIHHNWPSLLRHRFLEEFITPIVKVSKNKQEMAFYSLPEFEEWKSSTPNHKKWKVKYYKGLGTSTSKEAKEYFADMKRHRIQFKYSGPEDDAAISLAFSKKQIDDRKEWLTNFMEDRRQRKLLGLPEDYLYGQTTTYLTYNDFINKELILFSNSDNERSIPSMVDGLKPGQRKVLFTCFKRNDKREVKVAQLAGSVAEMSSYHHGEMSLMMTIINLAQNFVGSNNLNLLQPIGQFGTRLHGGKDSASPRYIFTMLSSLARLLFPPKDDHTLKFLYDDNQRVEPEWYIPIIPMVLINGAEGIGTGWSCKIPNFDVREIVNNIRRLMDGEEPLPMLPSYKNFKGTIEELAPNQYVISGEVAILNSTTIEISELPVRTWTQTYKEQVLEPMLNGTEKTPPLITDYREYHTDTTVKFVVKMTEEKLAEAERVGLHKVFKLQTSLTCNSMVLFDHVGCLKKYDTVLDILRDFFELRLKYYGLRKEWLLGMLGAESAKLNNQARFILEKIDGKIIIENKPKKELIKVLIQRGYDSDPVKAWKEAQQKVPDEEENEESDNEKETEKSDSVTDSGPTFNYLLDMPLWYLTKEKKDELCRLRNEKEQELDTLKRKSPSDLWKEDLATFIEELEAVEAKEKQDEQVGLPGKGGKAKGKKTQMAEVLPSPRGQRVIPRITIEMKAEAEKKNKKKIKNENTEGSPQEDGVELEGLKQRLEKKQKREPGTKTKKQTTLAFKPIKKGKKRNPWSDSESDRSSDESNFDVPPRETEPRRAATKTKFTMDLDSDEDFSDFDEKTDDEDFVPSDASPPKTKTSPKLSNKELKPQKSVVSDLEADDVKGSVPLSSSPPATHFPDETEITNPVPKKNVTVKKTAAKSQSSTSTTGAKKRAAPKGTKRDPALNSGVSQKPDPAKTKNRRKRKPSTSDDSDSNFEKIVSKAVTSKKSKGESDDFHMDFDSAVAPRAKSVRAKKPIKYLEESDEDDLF

Turning to `CCOc1ccc2c(c1)Oc1cc(O)ccc1C21c2ccccc2C(=O)N1/N=C/c1ccc(O)cc1` (centres undefined), the inhibition in test [1] came to 73.8%; in test [2], 0%; in test [5], 3.3%; in test [6], 36.5%. The 50% inhibitory concentration (IC50) turned out to be 0.78 µM in test [3], 1.06 µM in test [4], 4.66 µM in test [7] and 0.03 µM in test [8].

`CCOc1ccc2c(c1)Oc1cc(OC(=O)c3ccccc3Cl)ccc1C21c2ccccc2C(=O)N1/N=C/c1ccccc1[N+](=O)[O-]` (centres undefined): the inhibition is 5.4% in test [1], 0% in test [2] and 39.8% in test [6]. The IC50 was 7.75 µM in test [3], above 50 µM in test [4], above 50 µM in test [7] and 47 µM in test [8].

For the compound `CCOc1ccc2c(c1)Oc1cc(OC(=O)c3ccccc3[N+](=O)[O-])ccc1C21c2ccccc2C(=O)N1/N=C/c1ccc(Cl)cc1Cl` (centres undefined), the inhibition came out at 83.8% in test [1], 77% in test [2], 2.9% in test [5] and 98% in test [6]. The IC50 in test [3] was above 50 µM; in test [4], 6.74 µM; in test [7], above 50 µM; in test [8] it was 6.25 µM.

Consider `CCOc1ccc2c(c1)Oc1cc(O)ccc1C21c2ccccc2C(=O)N1/N=C/c1ccc(Cl)cc1` (centres undefined), for which the results for the inhibition in test [1], in test [5] and in test [6] were 81.6%, 1.3% and 22.7%, respectively. Also, the IC50 amounted to 5.74 µM in test [3], 2.3 µM in test [4], 9.77 µM in test [7] and 2.19 µM in test [8].

In the case of `CCOc1ccc2c(c1)Oc1cc(OC(=O)c3ccccc3OC)ccc1C21c2ccccc2C(=O)N1/N=C/c1ccc(OC)c(OC(=O)c2ccccc2OC)c1` (centres undefined), the inhibition in test [1] turned out to be 4.9%; in test [2] it was 13.9%; in test [6], 73.1%. In addition, the IC50 in test [3] was 23.6 µM; in test [4], above 50 µM; in test [7] it was above 50 µM; in test [8] it was above 50 µM.

For the compound `CCOc1ccc2c(c1)Oc1cc(OC(=O)c3ccccc3OC)ccc1C21c2ccccc2C(=O)N1/N=C/c1ccccc1OC` (centres undefined), the figures for the inhibition in test [1], in test [2] and in test [6] were 8.1%, 6.8% and 74%, respectively. Besides, the IC50 in test [3] is 21.4 µM; in test [4] it was above 50 µM; in test [7] it was above 50 µM; in test [8] it was 1.92 µM.

With `CCOc1ccc2c(c1)Oc1cc(O)ccc1C21c2ccccc2C(=O)N1/N=C/c1ccc(OC)c(O)c1` (centres undefined), the inhibition came out at 37.9% in test [1], 4.2% in test [2], 2.7% in test [5] and 77.8% in test [6]. For the same compound, the IC50 in test [3] was found to be 1.61 µM; in test [4], 1.93 µM; in test [7], 3.64 µM; in test [8] it was 0.29 µM.

In the case of `CCOc1ccc2c(c1)Oc1cc(O)ccc1C21c2ccccc2C(=O)N1/N=C/c1ccc(OC)cc1` (centres undefined), the inhibition in test [1] is 65%; in test [5] it was 3.6%; in test [6], 0.8%.

`CCOc1ccc2c(c1)Oc1cc(OC(=O)c3ccccc3Cl)ccc1C21c2ccccc2C(=O)N1/N=C/c1ccc(Cl)cc1` (centres undefined): the inhibition turned out to be 83.7% in test [1], 36.4% in test [2], 1.5% in test [5] and 90.5% in test [6]. Also, the IC50 is above 50 µM in test [3], above 50 µM in test [4], above 50 µM in test [7] and 28.7 µM in test [8].

For the compound `CCOc1ccc2c(c1)Oc1cc(O)ccc1C21c2ccccc2C(=O)N1/N=C/c1ccccc1OC` (centres undefined), the inhibition in test [1] worked out at 58.3%; in test [5], 3.3%; in test [6], 28.1%. Besides, the IC50 in test [3] is above 50 µM; in test [4] it was above 50 µM; in test [7], above 50 µM; in test [8], 0.67 µM.

Take `CCOc1ccc2c(c1)Oc1cc(O)ccc1C21c2ccccc2C(=O)N1/N=C/c1ccc(Cl)cc1Cl` (centres undefined): the inhibition in test [1] is 80%; in test [5], 2.3%; in test [6], 12.3%. The IC50 in test [3] was above 50 µM; in test [4] it was above 50 µM; in test [7], 23.2 µM; in test [8] it was 3.17 µM.

For `CCOc1ccc2c(c1)Oc1cc(OC(=O)c3ccccc3)ccc1C21c2ccccc2C(=O)N1/N=C/c1ccccc1OC(=O)c1ccccc1` (centres undefined), the inhibition turned out to be 21.5% in test [1], 55.9% in test [2] and 73.2% in test [6]. The IC50 was above 50 µM in test [3], above 50 µM in test [4], above 50 µM in test [7] and 8.29 µM in test [8].
